Laboratory results as given in ChEMBL document CHEMBL4477198, “Metabolites from the Fungal Endophyte Aspergillus austroafricanus in Axenic Culture and in Fungal-Bacterial Mixed Cultures” (J Nat Prod, 2016).
Calls of active or inactive are those of the source. The rule behind the calls is not given here.

Assays:
[1] = system: Staphylococcus aureus; assay: Antibacterial activity against Staphylococcus aureus ATCC 700699 by broth microdilution method; format: functional
[2] = system: Mycobacterium tuberculosis; assay: Antibacterial activity against Mycobacterium tuberculosis H37Rv by broth microdilution method; format: functional
[3] = system: L5178Y; assay: Cytotoxicity against mouse L5178Y cells by MTT assay; format: functional, cell-based
[4] = system: Bacillus subtilis; assay: Antibacterial activity against Bacillus subtilis 168 trpC2 by broth microdilution method; format: functional

Structure (SMILES)	Activity [2]	further results
Cc1cc(O)c(O)c(Oc2cc(C)cc(O)c2O)c1	inactive	MIC [1]: 25 µM
CC(C)(O)CCC[C@](C)(O)c1ccc(C(=O)O)cc1	inactive	
CC(C)[C@@H](C)/C=C/[C@@H](C)[C@H]1CC[C@H]2C3=CC=C4C[C@@H](O)CC[C@]4(C)[C@H]3CC[C@]12C [ERGOSTEROL]	inactive	EC50 [3]: 12.6 µM
COC(=O)c1c(O)ccc2oc3cc(CO)cc(O)c3c(=O)c12	inactive	
C=CC(C)(C)[C@@]12C=C(OC)C(=O)N3/C(=C/c4c[nH]cn4)C(=O)N[C@]31N(OC)c1ccccc12	inactive	
Cc1cc(O)cc(Oc2cc(C)c(C(N)=O)c(O)c2)c1	inactive	
COc1c(N2C[C@@H]3CCCN[C@@H]3C2)c(F)cc2c(=O)c(C(=O)O)cn(C3CC3)c12 [MOXIFLOXACIN]		MIC [1]: 1.56 µg/mL
O=C(O)c1cn(C2CC2)c2cc(N3CCNCC3)c(F)cc2c1=O [CIPROFLOXACIN]		MIC [4]: 0.008 µg/mL
Cc1cc(O)cc(Oc2cc(C)cc(O)c2)c1 [DIORCINOL]	inactive	MIC [4]: 34.8 µM
Cc1cc(O)c(Oc2cc(C)cc(O)c2O)c(O)c1	inactive	MIC [1]: 25 µM
COc1c(O)c(O)c(O)c2oc3c(Oc4c(O)cc(C)c5c(=O)c6c(O)cc(CO)cc6oc45)c(O)cc(C)c3c(=O)c12	inactive	
CC1(C)CCC[C@](C)(c2ccc(C(=O)O)cc2O)O1	inactive	
O=c1cc(CO)c(O)co1	inactive	
